From PubChem BioAssay AID192 (DTP/NCI, 2004)
Values joined by “and” are separate entries in the source; they are usually repeats but may differ in a detail not shown here. Equal values may be shown once. Toxic doses and inconclusive results are not listed.

System: BDF1 mice, B16 melanoma ip, median survival T/C
Test: NCI In Vivo Anticancer Drug Screen. Data for tumor model B16 Melanoma (intraperitoneal) in B6D2F1 (BDF1) mice
Settings: endpoint: median survival time, higher = longer survival
In short: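 The ratio T/C compares compound-treated mice with vehicle-treated controls, using survival or tumor size as the endpoint in a transplantable tumor model.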

[1] = dose: 6.25 mg/kg/injection, schedule: Q01DX009 (ip), vehicle: Klucel (hydroxypropylcellulose) (HPC)
[2] = dose: 12.5 mg/kg/injection, schedule: Q01DX009 (ip), vehicle: Klucel (hydroxypropylcellulose) (HPC)
[3] = dose: 25.0 mg/kg/injection, schedule: Q01DX009 (ip), vehicle: Klucel (hydroxypropylcellulose) (HPC)
[4] = dose: 50.0 mg/kg/injection, schedule: Q01DX009 (ip), vehicle: Klucel (hydroxypropylcellulose) (HPC)
[5] = dose: 100.0 mg/kg/injection, schedule: Q01DX009 (ip), vehicle: Klucel (hydroxypropylcellulose) (HPC)
[6] = dose: 50.0 mg/kg/injection, schedule: Q01DX009 (ip), vehicle: saline with Tween-80
[7] = dose: 100.0 mg/kg/injection, schedule: Q01DX009 (ip), vehicle: saline with Tween-80
[8] = dose: 200.0 mg/kg/injection, schedule: Q01DX009 (ip), vehicle: saline with Tween-80
[9] = dose: 200.0 mg/kg/injection, schedule: Q01DX009 (ip), vehicle: Klucel (hydroxypropylcellulose) (HPC)
[10] = dose: 50.0 mg/kg/injection, schedule: Q01DX009 (ip), vehicle: saline
[11] = dose: 25.0 mg/kg/injection, schedule: Q01DX009 (ip), vehicle: saline
[12] = dose: 100.0 mg/kg/injection, schedule: Q01DX009 (ip), vehicle: saline
[13] = dose: 12.5 mg/kg/injection, schedule: Q01DX009 (ip), vehicle: saline with Tween-80
[14] = dose: 25.0 mg/kg/injection, schedule: Q01DX009 (ip), vehicle: saline with Tween-80
[15] = dose: 5.0 mg/kg/injection, schedule: Q01DX009 (ip), vehicle: Klucel (hydroxypropylcellulose) (HPC)
[16] = dose: 20.0 mg/kg/injection, schedule: Q01DX009 (ip), vehicle: Klucel (hydroxypropylcellulose) (HPC)
[17] = dose: 400.0 mg/kg/injection, schedule: Q01DX009 (ip), vehicle: saline with Tween-80

Cc1cccc2cc3c(ccc4ccccc43)c[n+]12
T/C (dose: 1.0 mg/kg/injection, schedule: Q01DX009 (ip), vehicle: saline sonified): 105 % of control
T/C (dose: 2.0 mg/kg/injection, schedule: Q01DX009 (ip), vehicle: saline sonified): 107 % of control
T/C (dose: 4.0 mg/kg/injection, schedule: Q01DX009 (ip), vehicle: saline sonified): 102 % of control

CN(N)P(=S)(c1ccccc1)N(C)N
T/C [1]: 106 % of control
T/C [2]: 103 % of control

Cc1ccc(NC(=S)NC(Cc2ccccc2)c2ccccc2)c(C)c1 (stereo not drawn)
T/C [2]: 111 % of control
T/C [3]: 109 % of control
T/C [4]: 102 % of control
T/C (dose: 75.0 mg/kg/injection, schedule: Q04DX003 (ip), vehicle: Klucel (hydroxypropylcellulose) (HPC)): 94 % of control
T/C [5]: 88 % of control
T/C (dose: 150.0 mg/kg/injection, schedule: Q04DX003 (ip), vehicle: Klucel (hydroxypropylcellulose) (HPC)): 94 % of control
T/C (dose: 300.0 mg/kg/injection, schedule: Q04DX003 (ip), vehicle: Klucel (hydroxypropylcellulose) (HPC)): 102 % of control

CCSc1ccc2c(cc1=O)[C@@H](NC1OC(CO)C(O)C(O)C1O)CCc1cc(OC)c(OC)c(OC)c1-2 (stereo partly drawn)
T/C (dose: 50.0 mg/kg/injection, schedule: Q01DX009 (ip), vehicle: other): 101 % of control
T/C (dose: 100.0 mg/kg/injection, schedule: Q01DX009 (ip), vehicle: other): 109 % of control

O=C1OCCN1/N=C/c1ccc([N+](=O)[O-])o1
T/C [5]: 100 % of control

CNC(=S)N/N=C/c1ccc([N+](=O)[O-])s1
T/C [6]: 90 % of control
T/C [7]: 92 % of control
T/C [8]: 92 % of control

CCCCCCCCCCCCNC(=O)Nc1ccc(C)cc1C
T/C [5]: 92 % of control
T/C [9]: 96 % of control

Nc1n[nH]c(N)n1
T/C [10]: 99 % of control and 100 % of control
T/C [5]: 100 % of control (2×) and 108 % of control
T/C (dose: 100.0 mg/kg/injection, schedule: Q01DX009 (ip), vehicle: saline sonified): 90 % of control
T/C [7]: 95 % of control and 97 % of control and 120 % of control
T/C [9]: 94 % of control and 102 % of control (2×)
T/C (dose: 200.0 mg/kg/injection, schedule: Q01DX009 (ip), vehicle: saline sonified): 97 % of control and 100 % of control
T/C [8]: 100 % of control and 107 % of control
T/C (dose: 400.0 mg/kg/injection, schedule: Q01DX009 (ip), vehicle: Klucel (hydroxypropylcellulose) (HPC)): 92 % of control and 108 % of control and 110 % of control
T/C (dose: 400.0 mg/kg/injection, schedule: Q01DX009 (ip), vehicle: saline sonified): 95 % of control and 97 % of control
T/C (dose: 800.0 mg/kg/injection, schedule: Q01DX009 (ip), vehicle: Klucel (hydroxypropylcellulose) (HPC)): 86 % of control and 107 % of control and 111 % of control
T/C (dose: 800.0 mg/kg/injection, schedule: Q01DX009 (ip), vehicle: saline sonified): 92 % of control and 100 % of control
T/C (dose: 1600.0 mg/kg/injection, schedule: Q01DX009 (ip), vehicle: saline with Tween-80): 93 % of control
T/C (dose: 3200.0 mg/kg/injection, schedule: Q01DX009 (ip), vehicle: saline with Tween-80): 97 % of control

NC(=O)Nc1n[nH]c(-c2ccccc2)n1
T/C [11]: 99 % of control
T/C [10]: 99 % of control
T/C [12]: 86 % of control

CCOc1ccc(C(C)c2cc3c(cc2OC)OCO3)cc1 (stereo not drawn)
T/C (dose: 12.5 mg/kg/injection, schedule: Q01DX009 (ip), vehicle: distilled water + Tween-80): 114 % of control
T/C (dose: 25.0 mg/kg/injection, schedule: Q01DX009 (ip), vehicle: distilled water + Tween-80): 113 % of control

Cc1cc2c(c(O)c1CN1CCOCC1)C1=C(CCCC1)C(C)(C)O2
T/C (dose: 32.0 mg/kg/injection, schedule: Q01DX009 (ip), vehicle: Klucel (hydroxypropylcellulose) (HPC)): 108 % of control
T/C (dose: 64.0 mg/kg/injection, schedule: Q01DX009 (ip), vehicle: Klucel (hydroxypropylcellulose) (HPC)): 98 % of control
T/C (dose: 128.0 mg/kg/injection, schedule: Q01DX009 (ip), vehicle: Klucel (hydroxypropylcellulose) (HPC)): 93 % of control
T/C (dose: 256.0 mg/kg/injection, schedule: Q01DX009 (ip), vehicle: Klucel (hydroxypropylcellulose) (HPC)): 103 % of control

Cc1cc2c3ccc(C)[n+](C)c3ccc2n1C
T/C (dose: 0.08 mg/kg/injection, schedule: Q01DX009 (ip), vehicle: saline): 102 % of control
T/C (dose: 0.15 mg/kg/injection, schedule: Q01DX009 (ip), vehicle: saline): 92 % of control
T/C (dose: 0.3 mg/kg/injection, schedule: Q01DX009 (ip), vehicle: saline): 97 % of control
T/C (dose: 1.25 mg/kg/injection, schedule: Q01DX009 (ip), vehicle: saline): 100 % of control
T/C (dose: 2.5 mg/kg/injection, schedule: Q01DX009 (ip), vehicle: saline): 94 % of control

S=C=NCCc1ccccc1
T/C [13]: 111 % of control
T/C [14]: 114 % of control
T/C [6]: 96 % of control

CC1(c2ccc(N(CCCl)CCCl)cc2)NC(=O)NC1=O (stereo not drawn)
T/C (dose: 2.5 mg/kg/injection, schedule: Q01DX009 (ip), vehicle: Klucel (hydroxypropylcellulose) (HPC)): 104 % of control
T/C [15]: 94 % of control and 111 % of control
T/C (dose: 18.75 mg/kg/injection, schedule: Q01DX009 (ip), vehicle: Klucel (hydroxypropylcellulose) (HPC)): 119 % of control
T/C [16]: 120 % of control and 123 % of control
T/C (dose: 37.5 mg/kg/injection, schedule: Q01DX009 (ip), vehicle: Klucel (hydroxypropylcellulose) (HPC)): 102 % of control
T/C (dose: 40.0 mg/kg/injection, schedule: Q01DX009 (ip), vehicle: Klucel (hydroxypropylcellulose) (HPC)): 157 % of control and 161 % of control
T/C (dose: 75.0 mg/kg/injection, schedule: Q01DX009 (ip), vehicle: Klucel (hydroxypropylcellulose) (HPC)): 90 % of control

N#CCCN(CCC#N)/N=N\c1nc[nH]c1C(N)=O
T/C [6]: 89 % of control
T/C [7]: 100 % of control
T/C [8]: 100 % of control
T/C [17]: 100 % of control

C1CC[N-]CC1.CC(=N\O)/C(C)=N/O.CC(=N\O)/C(C)=N/O.[CH2-]C.[Co+2]
T/C [3]: 111 % of control
T/C [4]: 102 % of control

CC(C)COC(=O)c1ccc(NC(=O)Nc2ccccc2)cc1
T/C [7]: 93 % of control
T/C [8]: 102 % of control
T/C [17]: 97 % of control

CN(CCO)C1=C(N2CC2)C(=O)C(N(C)CCO)=C(N2CC2)C1=O
T/C (dose: 100.0 micrograms/kg/injection, schedule: Q01DX009 (ip), vehicle: saline): 111 % of control
T/C (dose: 200.0 micrograms/kg/injection, schedule: Q01DX009 (ip), vehicle: saline): 118 % of control

O=C(Nc1ccc(F)cc1)Nc1ccc(Cl)cc1
T/C [7]: 89 % of control
T/C [8]: 89 % of control

COc1ccc2c(c1)C(=O)CCN2
T/C (dose: 100.0 mg/kg/injection, schedule: Q04DX003 (ip), vehicle: Klucel (hydroxypropylcellulose) (HPC)): 114 % of control
T/C (dose: 200.0 mg/kg/injection, schedule: Q04DX003 (ip), vehicle: Klucel (hydroxypropylcellulose) (HPC)): 107 % of control
T/C (dose: 400.0 mg/kg/injection, schedule: Q04DX003 (ip), vehicle: Klucel (hydroxypropylcellulose) (HPC)): 99 % of control

O=c1[nH]cc(F)c(=O)n1-c1ccco1
T/C (dose: 12.5 mg/kg/injection, schedule: Q01DX011 (ip), vehicle: saline with Tween-80): 122 % of control
T/C (dose: 25.0 mg/kg/injection, schedule: Q01DX011 (ip), vehicle: saline with Tween-80): 115 % of control

CCC/C=C/C=C/C1CC(O)C(O)C(=O)C1CO (stereo not drawn)
T/C [13]: 102 % of control
T/C [14]: 104 % of control
T/C [6]: 90 % of control
T/C [7]: 95 % of control

Nc1nc(F)nc2nc[nH]c12
T/C [15]: 88 % of control and 109 % of control
T/C (dose: 10.0 mg/kg/injection, schedule: Q01DX009 (ip), vehicle: Klucel (hydroxypropylcellulose) (HPC)): 90 % of control and 118 % of control
T/C [16]: 95 % of control and 122 % of control

C[Si](C)(O[Si](C)(C)c1ccccc1)c1ccccc1
T/C [11]: 123 % of control
T/C [12]: 114 % of control

NC(=O)N1CCN(CCCN2c3ccccc3Sc3cc(Cl)ccc32)CC1
T/C (dose: 3.12 mg/kg/injection, schedule: Q01DX009 (ip), vehicle: Klucel (hydroxypropylcellulose) (HPC)): 92 % of control
T/C [1]: 98 % of control
T/C [2]: 101 % of control
T/C [3]: 106 % of control
